Patent US8933105B2, “Pyrrole compounds” (Takeda Pharmaceutical Company Limited, priority 2007, dated 2015)

Tests used:
[1] = target: T1, proton, potassium-adenosine triphosphatase (H+,K+-ATPase) (Sus scrofa, UniProt P19156); test: Proton potassium-adenosine triphosphatase (H+,K+-ATPase) inhibitory activity test; type: biochemical; settings: swine gastric microsomal fraction, pH 6.5, 37° C.
T1 construct: a gastric mucous membrane microsomal fraction was prepared from the stomach of swine; from tissue; host or cells: swine stomach, gastric mucous membrane microsomal fraction
Experimental: Proton Potassium-Adenosine Triphosphatase (H^+,K^+-ATPase) Inhibitory Activity Test
According to the method [Biochim. Biophys. Acta, 728, 31 (1983)] of Wallmark et al., a gastric mucous membrane microsomal fraction was prepared from the stomach of swine. First, the stomach was removed, washed with tap water, immersed in 3 mol/L brine, and the surface of the mucous membrane was wiped with a paper towel. The gastric mucous membrane was detached, chopped, and homogenized in a 0.25 mol/L saccharose solution (pH 6.8) containing 1 mmol/L EDTA and 10 mmol/L tris-hydrochloric acid using polytron (Kinematica). The obtained homogenate was centrifuged at 20,000×g for 30 min and the supernatant was centrifuged at 100,000×g for 90 min. The precipitate was suspended in 0.25 mol/L saccharose solution, superimposed on a 0.25 mol/L saccharose solution containing 7.5% Ficoll, and centrifuged at 100,000×g for 5 hr. The fraction containing the interface between the both layers was recovered, and centrifugally washed with 0.25 mol/L saccharose solution.
The obtained microsomal fraction was used as a proton, potassium-adenosine triphosphatase standard product.
To 40 μL of a 50 mmol/L HEPES-tris buffer (5 mmol/L magnesium chloride, 10 mmol/L potassium chloride, 10 μmol/L valinomycin, pH=6.5) containing 2.5 μg/mL (based on the protein concentration) of the enzyme standard product was added a test compound (5 μL) dissolved in a 10% aqueous dimethyl sulfoxide solution, and the mixture was incubated at 37° C. for 30 min. The enzyme reaction was started by adding 5 μL of a 2 mmol/L adenosine triphosphate tris salt solution (50 mmol/L HEPES-tris buffer (5 mmol/L magnesium chloride, pH 6.5)). The enzyme reaction was carried out at 37° C. for 20 min, and 15 μL of a malachite green solution (0.12% malachite green solution in sulfuric acid (2.5 mol/L), 7.5% ammonium molybdate and 11% Tween 20 were mixed at a ratio of 100:25:2) was added to quench the reaction. After allowing to stand at room temperature for 15 min, the resulting reaction product of inorganic phosphorus with malachite green was calorimetrically determined at a wavelength of 610 nm. In addition, the amount of the inorganic phosphoric acid in the reaction solution free of potassium chloride was measured in the same manner, which was subtracted from the inorganic phosphoric acid amount in the presence of potassium chloride to determine the proton, potassium-adenosine triphosphatase activity. The inhibitory rate (%) was determined from the activity value of the control and the activity values of various concentrations of the test compound, and the 50% inhibitory concentration (IC50) of the proton, potassium-adenosine triphosphatase was determined.

HepG2 = test: ATP content test (intracellular ATP content, ATPLite); type: cell-based, Human; settings: HepG2, 30 μM, culture for one day, relative value to control (without addition of drug)
Experimental: (§1) Human liver cancer-derived cell line HepG2 (ATCC No. HB-8065) was passaged using Dulbecco's Modified Eagle medium (DMEM; Invitrogen) containing 10% fetal bovine serum (FBS; TRACE SCIENTIFIC LTD.), 1 mmol/L sodium pyruvate (Invitrogen), 2 mmol/L L-glutamine (Invitrogen), 50 IU/mL penicillin (Invitrogen) and 50 μg/mL streptomycin (Invitrogen) at 5% CO2, 37° C. The test reagent was prepared with DMSO to 10 mM, and further diluted with DMEM medium containing 0.5% FBS, 1 mmol/L sodium pyruvate, 2 mmol/L L-glutamine, 50 IU/mL penicillin and 50 μg/mL streptomycin to a final concentration of DMSO of 0.1%. HepG2 (2×10^4 cells/well) was cultured on a 96 well white plate (Costar) with the test reagent at 5% CO2, 37° C. After culture for one day, the intracellular ATP content was measured using ATPLite™ (PerkinElmer Life Sciences). The results are shown in Table 26 (n≧3, average value±SD) as a relative value (%) to control (without addition of drug) at 30 μM.

Caspase-3/7 = Caspase-3/7 activity test (Caspase-Glo 3/7 Assay); type: cell-based, Human; settings: HepG2, 30 μM, culture for one day, relative to maximum with Staurosporine (100%) and no test reagent (0%)
Experimental: as §1
Caspase-3/7 Activity Test
The Caspase-3/7 activity in the cells cultured for one day by a method similar to that in Experimental Example 2 was measured using Caspase-Glo 3/7 Assay (Promega). The results are shown in Table 26 (n≧3, average value±SD) as relative activity (%) of each reagent based on the maximum value of Caspase-3/7 activity when exposed to Staurosporine (100%), and the activity without addition of a test reagent (0%).

T1 sequence (P19156 2-1034 limits assumed): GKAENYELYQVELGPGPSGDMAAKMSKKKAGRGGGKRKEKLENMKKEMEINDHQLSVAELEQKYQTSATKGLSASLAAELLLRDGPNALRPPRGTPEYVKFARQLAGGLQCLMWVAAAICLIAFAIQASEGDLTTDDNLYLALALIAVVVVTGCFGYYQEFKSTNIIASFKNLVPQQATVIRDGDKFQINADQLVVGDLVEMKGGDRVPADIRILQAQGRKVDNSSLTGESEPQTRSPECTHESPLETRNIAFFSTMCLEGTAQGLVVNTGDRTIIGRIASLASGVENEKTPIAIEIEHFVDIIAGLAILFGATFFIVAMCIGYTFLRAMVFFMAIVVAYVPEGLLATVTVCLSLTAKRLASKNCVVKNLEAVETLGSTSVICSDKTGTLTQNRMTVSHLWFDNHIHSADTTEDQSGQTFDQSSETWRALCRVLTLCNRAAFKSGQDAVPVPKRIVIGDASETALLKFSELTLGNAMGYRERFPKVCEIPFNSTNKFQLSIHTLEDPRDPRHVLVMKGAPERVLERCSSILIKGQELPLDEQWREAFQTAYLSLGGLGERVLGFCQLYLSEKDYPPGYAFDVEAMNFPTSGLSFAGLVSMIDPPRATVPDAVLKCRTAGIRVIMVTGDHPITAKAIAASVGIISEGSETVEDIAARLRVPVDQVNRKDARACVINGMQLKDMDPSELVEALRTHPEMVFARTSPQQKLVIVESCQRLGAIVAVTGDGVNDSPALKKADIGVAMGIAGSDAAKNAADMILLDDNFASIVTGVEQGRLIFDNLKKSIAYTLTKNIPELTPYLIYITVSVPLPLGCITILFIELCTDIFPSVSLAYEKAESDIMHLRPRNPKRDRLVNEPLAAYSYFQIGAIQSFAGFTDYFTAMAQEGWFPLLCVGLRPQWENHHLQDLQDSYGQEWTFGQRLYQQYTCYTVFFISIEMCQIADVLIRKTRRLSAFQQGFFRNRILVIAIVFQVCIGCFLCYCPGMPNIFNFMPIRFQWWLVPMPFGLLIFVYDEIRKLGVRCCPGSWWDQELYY
T1 sequence (P18434 whole entry partner): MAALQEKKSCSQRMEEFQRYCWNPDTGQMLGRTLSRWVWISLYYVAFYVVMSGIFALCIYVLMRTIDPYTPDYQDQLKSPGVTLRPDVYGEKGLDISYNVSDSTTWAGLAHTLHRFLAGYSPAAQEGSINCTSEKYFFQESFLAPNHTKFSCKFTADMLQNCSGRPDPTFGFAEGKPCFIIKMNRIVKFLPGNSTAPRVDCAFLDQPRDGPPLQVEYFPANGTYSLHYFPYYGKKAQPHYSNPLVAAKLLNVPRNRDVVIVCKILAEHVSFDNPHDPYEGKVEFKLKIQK

For `CNCc1cn(S(=O)(=O)c2ccoc2C)c(-c2cccnc2F)c1F.Cl` [Example 72, 1-{4-fluoro-5-(2-fluoropyridin-3-yl)-1-[(2-methylfuran-3-yl)sulfonyl]-1H-pyrrol-3-yl}-N-methylmethanamine hydrochloride], the IC50 [1] was 93 nM, the “ATP content (%, 30 μM)” value (HepG2) was 88.1% and the “Caspase-3/7 activity (%, 30 μM)” value (Caspase-3/7) was −0.5%.
In the case of `CNCc1cn(S(=O)(=O)c2cnn(C(F)F)c2)c(-c2cccnc2F)c1F.Cl` [Example 81, 1-[1-{[1-(difluoromethyl)-1H-pyrazol-4-yl]sulfonyl}-4-fluoro-5-(2-fluoropyridin-3-yl)-1H-pyrrol-3-yl]-N-methylmethanamine hydrochloride], the IC50 [1] is reported as 300 nM, the “ATP content (%, 30 μM)” value (HepG2) is reported as 101.7% and the “Caspase-3/7 activity (%, 30 μM)” value (Caspase-3/7) is reported as −0.2%.
In the case of `CNCc1cn(S(=O)(=O)c2nccs2)c(-c2cccnc2F)c1F.Cl` [Example 83, 1-[4-fluoro-5-(2-fluoropyridin-3-yl)-1-(1,3-thiazol-2-ylsulfonyl)-1H-pyrrol-3-yl]-N-methylmethanamine hydrochloride], the IC50 [1] is reported as 180 nM, the “ATP content (%, 30 μM)” value (HepG2) is reported as 96.6% and the “Caspase-3/7 activity (%, 30 μM)” value (Caspase-3/7) is reported as 0.3%.
`CNCc1cn(S(=O)(=O)c2ccccn2)c(-c2cccnc2F)c1F.Cl` [Example 85, 1-[4-fluoro-5-(2-fluoropyridin-3-yl)-1-(pyridin-2-ylsulfonyl)-1H-pyrrol-3-yl]-N-methylmethanamine hydrochloride] was tested, and the IC50 [1] was 98 nM, the “ATP content (%, 30 μM)” value (HepG2) was 102.0% and the “Caspase-3/7 activity (%, 30 μM)” value (Caspase-3/7) was −0.6%.
`CNCc1cc(-c2cccnc2C#N)n(S(=O)(=O)c2ccccc2Cl)c1.Cl` [Example 99, 3-{1-[(2-chlorophenyl)sulfonyl]-4-[(methylamino)methyl]-1H-pyrrol-2-yl}pyridine-2-carbonitrile hydrochloride] was tested, and the IC50 [1] was 270 nM, the “ATP content (%, 30 μM)” value (HepG2) was 82.7% and the “Caspase-3/7 activity (%, 30 μM)” value (Caspase-3/7) was 0.0%.
With `CNCc1cc(-c2cccnc2C#N)n(S(=O)(=O)c2ccccc2C#N)c1.Cl` [Example 101, 3-{1-[(2-cyanophenyl)sulfonyl]-4-[(methylamino)methyl]-1H-pyrrol-2-yl}pyridine-2-carbonitrile hydrochloride] the IC50 [1] was 230 nM, the “ATP content (%, 30 μM)” value (HepG2) was 97.3% and the “Caspase-3/7 activity (%, 30 μM)” value (Caspase-3/7) was −0.5%.
